What was measured:
[1] = test system: laminin; assay: Immunoblot of laminin in conditioned media of human TM cells; assay type: cell-based; settings: 24 hours
Procedure: (§1) FIGS. 5A-E. AICAR suppresses ECM proteins in primary human TM cells under basal and TGF-β2 stimulatory conditions. (A) Representative immunoblots of ECM proteins from conditioned media (CM) of human TM cells treated for 24 hours with PBS vehicle or 0.5 mM AICAR and (B) integrated band intensities calculated from those immunoblots. (C) Representative immunoblots of ECM proteins from CM of human TM cells under stimulation with 2.5 ng/mL TGF-β2. Cells were pre-incubated for 1 hour with PBS or 0.5 mM AICAR prior to full 24-hour treatment. (D) Mean integrated band intensities. Data in panels B and D are expressed as mean±SEM (*p<0.05 vs. PBS vehicle by student t-test; n=5-7). (E) Representative 10% acrylamide gels stained with Coomassie Brilliant Blue as a loading control. […]
(§2) At the conclusion of each experiment for matricellular and ECM protein detection, conditioned media (CM) from TM cell cultures was harvested and centrifuged at 5000 rpm for 10 minutes at 4° C. The supernatant was then concentrated (Amicon Ultra-4 Filter Unit, 10 kDa; Millipore, Milford, Mass.), and protein content quantified using the DC Protein Assay kit adhering to manufacturer's protocols (Bio-Rad, Hercules, Calif.). […] Samples were then centrifuged at 14,000 rpm for 15 minutes at 4° C. and protein content quantified. […]

[2] = test system: collagen I; assay: Immunoblot of collagen I in conditioned media of human TM cells; assay type: cell-based; settings: 24 hours
Procedure: as §1, §2

[3] = test system: perfused ex vivo human anterior segments; assay: IOP in constant-flow-perfused ex vivo human anterior segments; settings: 2.5 μL of 200 mM AICAR in 1 mL of ex vivo media, by day 7, mean±SEM, n=3
Text: The effects of AICAR on IOP in perfused constant flow ex vivo human anterior segments was examined using well-established and validated methods (see, e.g., Oh et al., Invest. Ophthalmol. Vis. Sci. 2013; 54:3309-19; Ethier et al., Invest. Ophthalmol. Vis. Sci. 2004; 45:1863-70). Briefly, all donor pairs of eyes were obtained from National Disease Research Interchange (NDRI, Philadelphia, Pa.) according to the provisions of the Declaration of Helsinki for research involving human tissue. Eyes were obtained within 24 hours after death. No donors were known to have a history of glaucoma or other ocular disorder. Human perfused anterior segment cultures were prepared by scoring the surface of the eye around ora serrata with a surgical blade, and the full-thickness incision was completed around the eye with scissors. The vitreous, lens, and iris were removed. […] IOP was monitored with a pressure transducer (Argon Medical Devices, Athens, Tex.) and were recorded with an automated computerized system (National Instruments, Austin, Tex.) every second and averaged each hour. […] Effects of AICAR treatment on IOP are expressed as the percentage change in IOP (compared to baseline). Values are expressed as mean±SEM, and paired two-tailed student t-tests are applied to determine significance of difference in IOP between control and experimental groups at selected time intervals. […]

[4] = 0.5 mM AICAR vs PBS vehicle, basal
[5] = 0.5 mM AICAR, under TGF-β2 stimulation with 2.5 ng/mL

For `NC(=O)c1ncn([C@@H]2O[C@H](CO)[C@@H](O)[C@H]2O)c1N` [AICAR, 5-Aminoimidazole-4-carboxamide riboside], the “decrease in laminin (mean integrated band intensity)” value [1, 4] was 64%, the “decrease in laminin level” value [1, 5] was 33% and the “decrease in collagen I (mean integrated band intensity)” value [2, 4] was 70%. For the same compound, the “decrease in collagen I level” value [2, 5] was 26% and the “mean decrease in IOP compared with paired opposite eye controls” value [3] was 18.54±1.78%.
